Laboratory results taken from article PMC6547740, “Potent and specific MTH1 inhibitors targeting gastric cancer” (Cell Death & Disease, 2019).

How the values were obtained:
HGC-27 cells = assay: Alkaline comet assay, HGC-27; assay type: cell-based, human; settings: HGC-27, 10 µM, 48 h, compared with DMSO
Method: MGC-803 and HGC-27 cells were seeded into 6-well plates(1.5 × 10^5 cells/well) and cultured overnight. For siRNA experiments, the control siRNA and MTH1 siRNA were transfected into cells. For compounds experiments, cells were treated with candidate compounds MI-743 for 48 h before collection. For the H2O2 control, cells were treated with 100 µM H2O2 for 10 min. Subsequently, cells were harvested, washed and resuspended with PBS. After counting, cells were mixed with 1.2% low melting-temperature agarose at 37 °C. The mixtures were layered onto pre-warmed glass slides, which were pre-coated with 1% agarose. After adding coverslips, slides were kept in 4 °C immediately for 10-15 min, followed by immersing in pre-chilled lysis buffer(2.5 M NaCl, 0.1 M EDTA, 10 mM Tris-HCL pH 7.7, 1% Triton X-100, 1% DMSO)for 5-8 h. Then, slides were washed three times with enzyme reaction buffer (40 mM HEPES pH 8.0, 0.1 M KCl, 0.5 mM EDTA and 0.2 mg/mL BSA) and incubated for another 45 min in pre-chilled alkaline electrophoresis buffer (50 mM NaOH, 1 mM EDTA, 1% DMSO, pH12.8). After electrophoresis for 30 min at 25 V, slides were neutralized with 0.4 M Tris-HCl pH 7.0 for 1 h and stained with 1‰ EB for 5 min. At last, images were acquired using fluorescence microscope and analysised by CometScore software.

HepG2 cells = assay: MTT cell viability, HepG2; assay type: cell-based; settings: Homo sapiens, liver cancer cell line, 72 h
Method: (§1) The cell viability was determined by 3-(4,5-dimethylthiazol-2-yl)-2,5-diphenyltetrazolium bromide (MTT) assay, according to the manufacturer’s instructions. 1 day before treatment, cells were seeded into 96-well plates at a concentration of 2–5 × 10^3 cells per well, followed by treatment with fresh medium containing serial dilutions of candidate compounds for 48 or 72 h, 20 μL of MTT solution (5 mg/mL in PBS) was then added to each well. After treatment, the plates were incubated at 37 °C for another 4 h. Subsequently, the MTT solution was removed and 150 μL of DMSO was added to each well for 10 min, and then the plates were shaken to dissolve the dark blue crystal (formazan), the absorbance was detected at 570 nm using a BioTek microplate reader. The data were analyzed using SPSS 20 software.

[1] = Body weight and organ H&E staining in xenograft mice; assay type: in vivo, BALB/c nude mice; settings: 40 mg/kg, gavage once a day for 25 days, vs oil group
Method: All animal experiments were conducted according to the guidelines of the Institutional Animal Care and Use Committee of Zhengzhou University. Four or five-week-old female BALB/c nude mice, weighing 18–21 g were purchased from Hunan Slack Scene of Laboratory Animal Company, LTD (Hunan, China). They received abundant food and water and were housed in a laminar flow under sterilized condition. 200 µL MGC-803 cells at the concentration of 5 × 10^7/mL were injected into the right scapular region of the mice. When most of the tumor volumes reached 100 mm^3, mice were randomly divided into oil (solvent) group and MI-743(40 mg/kg) treatment group. Then, they received gavage daily for 25 days. The body weight was weighed every 2 days and the tumor volumes were measured every 4 days. At the 25th day, the tumors were surgically removed and weighed. The tumor size was determined by vernier caliper measurements and the tumor and major organs were fixed in 4% buffered paraformaldehyde and paraffin-embedded for hematoxylin and eosin (HE) staining, immunohistochemistry (IHC) and TUNEL assay.

MCF-7 cells = assay: MTT cell viability, MCF-7; assay type: cell-based; settings: Homo sapiens, MCF7, breast cancer cell line, 72 h
Method: as §1

MTH1 [2] = target: T1, MTH1 (Homo sapiens, UniProt P36639); assay: MTH1 recombinant protein activity / inhibitor screening (malachite green); assay type: biochemical; parameters: His-tag; made in house; host or cells: E. coli BL21(DE3); settings: 5 nM recombinant MTH1, dGTP substrate, absorbance 630 nm; read-out: IC50 (MTH1 inhibition)
Method: On the basis of the ability of MTH1 in converting dGTP to dGMP and pyrophosphate, and the latter can then be hydrolyzed to […] by inorganic pyrophosphatase, the MTH1 activity was designed to measure the product of […], after its reaction with malachite green and ammonium molybdate(Fig. 2l), the green associated complex was measured at 630 nm by PerkinElmer Envision microplate reader.
Firstly, the assay buffer (100 mM Tris-acetate at pH 8.0, 40 mM NaCl, 10 mM Mg-acetate, 0.005% Tween 20 and 1 mM DTT) was added into a 96-well plate. Then, 5 nM recombinant human MTH1, […] dGTP and 0.2U/ml […] were added in sequence. After 60 min reaction, the mixture of 0.45 mg/mL malachite green and 4.2% ammonium molybdate in proportion of 3:1 were added. Then, the plates were incubated and shaken at room temperature for another 60 min. The absorbance was measured at 630 nm using the PerkinElmer Envision micro plate reader.

MTH1 [3] = target: T1, MTH1; assay: Cellular thermal shift assay (CETSA), MTH1; assay type: binding; parameters: endogenous in cells; host or cells: MGC-803 (human gastric cancer cell line); settings: MGC-803 cells, 50 µM compound, heated 10 min from 43 to 61 °C, western blot
Method: (§2) Cellular thermal shift assay (CETSA), also known as the target engagement assay was one-way to detect the intracellular interaction ability of compounds with its specific target. Firstly, cells were seeded into T75 culture flasks and cultured overnight. Then, the cells were treated with cell media containing 1‰ DMSO as blank control and candidate compounds for 3–5 h. Next, the cells were collected by centrifugation and resuspended by PBS, then the cells were aliquoted into 7 PCR tubes and heated using PCR instrument for 10 min from 43 to 61 °C. After that, cells were lysed using liquid nitrogen and three repeated cycles of freeze-thawing. Then, samples were centrifuged at 12,000 × g for 20 min at 4 °C. Supernatants were denatured at 100 °C for 10 min and kept at −20 °C until Western Blot analysis.

EC9706 cells = assay: MTT cell viability, EC9706; assay type: cell-based; settings: Homo sapiens, esophageal cancer cell line, 72 h
Method: as §1

MUTYH = target: T2, MUTYH (Homo sapiens, UniProt Q9UIF7); assay: Cellular thermal shift assay (CETSA), MUTYH; assay type: binding; settings: MGC-803 cells, 50 µM compound, heated 10 min from 43 to 61 °C
T2 construct: endogenous in cells; host or cells: MGC-803 (human gastric cancer cell line)
Method: as §2

SMMC-7721 cells = assay: MTT cell viability, SMMC-7721; assay type: cell-based; settings: Homo sapiens, liver cancer cell line, 72 h
Method: as §1

MKN45 cells = assay: MTT cell viability, MKN45; assay type: cell-based; settings: Homo sapiens, MKN-45, gastric cancer cell line, 72 h
Method: as §1

T2 sequence (Q9UIF7 whole entry): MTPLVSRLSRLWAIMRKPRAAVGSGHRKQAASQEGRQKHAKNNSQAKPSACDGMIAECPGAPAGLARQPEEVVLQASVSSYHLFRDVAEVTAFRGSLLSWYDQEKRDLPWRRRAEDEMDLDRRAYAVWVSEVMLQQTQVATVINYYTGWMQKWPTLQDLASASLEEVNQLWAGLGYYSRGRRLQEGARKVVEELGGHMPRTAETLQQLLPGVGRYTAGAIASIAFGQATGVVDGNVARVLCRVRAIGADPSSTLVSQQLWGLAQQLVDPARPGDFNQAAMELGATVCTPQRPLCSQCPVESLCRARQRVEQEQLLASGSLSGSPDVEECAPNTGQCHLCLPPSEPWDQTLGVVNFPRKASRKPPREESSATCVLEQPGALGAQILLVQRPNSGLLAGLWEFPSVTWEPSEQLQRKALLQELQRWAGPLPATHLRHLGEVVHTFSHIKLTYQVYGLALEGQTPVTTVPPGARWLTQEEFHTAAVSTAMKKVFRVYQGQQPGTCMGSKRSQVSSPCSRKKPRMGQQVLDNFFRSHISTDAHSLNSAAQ

- IC50 (HepG2 cells): 6.73 ± 0.83 µM
- IC50 (MCF-7 cells): 9.67 ± 1.01 µM
- IC50 (MTH1 [2]): 0.0914 ± 0.00145 µM
- incubation temperature until which MTH1 was stable (MTH1 [3]): 61 °C
- temperature at which MUTYH became unstable (MUTYH): 49 °C
- IC50 (SMMC-7721 cells): 5.39 ± 0.73 µM
- IC50 (MKN45 cells): 16 ± 1.18 µM
SMILES: C#CCSc1nc(NNC(N)=S)c(C#N)c(-c2ccc3oc(=O)ccc3c2)n1 [MI-743, 2-(5-cyano-6-(2-oxo-2H-chromen-6-yl)-2-(prop-2-yn-1-ylthio)pyrimidin-4-yl)hydrazine-1-carbothioamide]
- comet tail moment (HGC-27 cells): significantly elevated
- H&E staining of the liver, kidney, lung, heart and spleen [1]: no signs of toxicity
- mouse body weight [1]: did not present obvious change
- IC50 (EC9706 cells): 8.35 ± 0.92 µM
